Measurements reported in the supplement of paper PMC10307832.

How the values were obtained:
Experiment in all cases: relative viability (nuclei count vs DMSO), 5 days (fraction); higher = more cells survive
201T = tested on: 201T
Method in brief: (§1)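 One day after seeding in 1536-well plates, lung cancer cell lines were dosed by pin tool. Dosing was either single-drug or a fixed anchor-drug dose plus five library-drug doses (not always all listed) in √10 steps. After 5 days, nuclei were stained in one fix-and-stain step and counted on 4× images, and relative viability is the nuclei count of treated wells over that of vehicle wells, given as the median of duplicate plates.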

BEN = tested on: BEN
Method in brief: as §1

EMC-BAC-2 = tested on: EMC-BAC-2
Method in brief: as §1

HARA = tested on: HARA
Method in brief: as §1

HCC-44 = tested on: HCC-44
Method in brief: as §1

LOU-NH91 = tested on: LOU-NH91
Method in brief: as §1

NCI-H1395 = tested on: NCI-H1395
Method in brief: as §1

NCI-H1666 = tested on: NCI-H1666
Method in brief: as §1

NCI-H1993 = tested on: NCI-H1993
Method in brief: as §1

NCI-H2009 = tested on: NCI-H2009
Method in brief: as §1

NCI-H2023 = tested on: NCI-H2023
Method in brief: as §1

NCI-H2087 = tested on: NCI-H2087
Method in brief: as §1

NCI-H2126 = tested on: NCI-H2126
Method in brief: as §1

NCI-H2347 = tested on: NCI-H2347
Method in brief: as §1

NCI-H23 = tested on: NCI-H23
Method in brief: as §1

NCI-H3122 = tested on: NCI-H3122
Method in brief: as §1

NCI-H441 = tested on: NCI-H441
Method in brief: as §1

NCI-H596 = tested on: NCI-H596
Method in brief: as §1

NCI-H647 = tested on: NCI-H647
Method in brief: as §1

NCI-H727 = tested on: NCI-H727
Method in brief: as §1

NCI-H838 = tested on: NCI-H838
Method in brief: as §1

O=C(O)c1ccc(-c2c[nH]c3ncc(-c4ccccc4)cc23)cc1C1CCCC1 + CC1(C)CCC(c2ccc(Cl)cc2)=C(CN2CCN(c3ccc(C(=O)NS(=O)(=O)c4ccc(N[C@H](CCN5CCOCC5)CSc5ccccc5)c(S(=O)(=O)C(F)(F)F)c4)cc3)CC2)C1 [Navitoclax] (partner 0.5 µM)
relative viability (201T; first compound 0.04 µM): 1.23 | relative viability (201T; first compound 0.1265 µM): 1.26 | relative viability (201T; first compound 0.4 µM): 1.22 | relative viability (201T; first compound 1.265 µM): 1.13 | relative viability (BEN; first compound 0.04 µM): 0.06 | relative viability (BEN; first compound 0.1265 µM): 0.057 | relative viability (BEN; first compound 0.4 µM): 0.0946 | relative viability (BEN; first compound 1.265 µM): 0.0505 | relative viability (EMC-BAC-2; first compound 0.04 µM): 1.18 | relative viability (EMC-BAC-2; first compound 0.1265 µM): 1.23 | relative viability (EMC-BAC-2; first compound 0.4 µM): 1.16 | relative viability (EMC-BAC-2; first compound 1.265 µM): 1.22 | relative viability (HARA; first compound 0.04 µM): 1.08 | relative viability (HARA; first compound 0.1265 µM): 1.14 | relative viability (HARA; first compound 0.4 µM): 1.09 | relative viability (HARA; first compound 1.265 µM): 1.04 | relative viability (HCC-44; first compound 0.04 µM): 1.06 | relative viability (HCC-44; first compound 0.1265 µM): 1.01 | relative viability (HCC-44; first compound 0.4 µM): 0.944 | relative viability (HCC-44; first compound 1.265 µM): 0.914 | relative viability (LOU-NH91; first compound 0.04 µM): 0.759 | relative viability (LOU-NH91; first compound 0.1265 µM): 0.73 | relative viability (LOU-NH91; first compound 0.4 µM): 0.68 | relative viability (LOU-NH91; first compound 1.265 µM): 0.541 | relative viability (NCI-H1395; first compound 0.04 µM): 1.13 | relative viability (NCI-H1395; first compound 0.1265 µM): 1.05 | relative viability (NCI-H1395; first compound 0.4 µM): 1.03 | relative viability (NCI-H1395; first compound 1.265 µM): 0.915 | relative viability (NCI-H1666; first compound 0.04 µM): 1.02 | relative viability (NCI-H1666; first compound 0.1265 µM): 1.01 | relative viability (NCI-H1666; first compound 0.4 µM): 0.849 | relative viability (NCI-H1666; first compound 1.265 µM): 0.584 | relative viability (NCI-H1993; first compound 0.04 µM): 0.955 | relative viability (NCI-H1993; first compound 0.4 µM): 0.986 | relative viability (NCI-H1993; first compound 1.265 µM): 0.795 | relative viability (NCI-H2009; first compound 0.04 µM): 1.15 | relative viability (NCI-H2009; first compound 0.1265 µM): 1.1 | relative viability (NCI-H2009; first compound 0.4 µM): 1.15 | relative viability (NCI-H2009; first compound 1.265 µM): 0.969 | relative viability (NCI-H2023; first compound 0.04 µM): 1.03 | relative viability (NCI-H2023; first compound 0.1265 µM): 1.11 | relative viability (NCI-H2023; first compound 0.4 µM): 0.987 | relative viability (NCI-H2023; first compound 1.265 µM): 0.904 | relative viability (NCI-H2087; first compound 0.04 µM): 0.856 | relative viability (NCI-H2087; first compound 0.1265 µM): 1.03 | relative viability (NCI-H2087; first compound 0.4 µM): 1.05 | relative viability (NCI-H2087; first compound 1.265 µM): 0.857 | relative viability (NCI-H2126; first compound 0.04 µM): 0.892 | relative viability (NCI-H2126; first compound 0.1265 µM): 0.875 | relative viability (NCI-H2126; first compound 0.4 µM): 0.745 | relative viability (NCI-H2126; first compound 1.265 µM): 0.685 | relative viability (NCI-H2347; first compound 0.04 µM): 0.778 | relative viability (NCI-H2347; first compound 0.1265 µM): 0.821 | relative viability (NCI-H2347; first compound 0.4 µM): 0.761 | relative viability (NCI-H2347; first compound 1.265 µM): 0.612 | relative viability (NCI-H23; first compound 0.04 µM): 0.804 | relative viability (NCI-H23; first compound 0.1265 µM): 0.944 | relative viability (NCI-H23; first compound 0.4 µM): 0.757 | relative viability (NCI-H23; first compound 1.265 µM): 0.724 | relative viability (NCI-H3122; first compound 0.04 µM): 1.02 | relative viability (NCI-H3122; first compound 0.1265 µM): 1 | relative viability (NCI-H3122; first compound 0.4 µM): 1.03 | relative viability (NCI-H3122; first compound 1.265 µM): 0.976 | relative viability (NCI-H441; first compound 0.04 µM): 0.751 | relative viability (NCI-H441; first compound 0.1265 µM): 0.583 | relative viability (NCI-H441; first compound 0.4 µM): 0.365 | relative viability (NCI-H441; first compound 1.265 µM): 0.469 | relative viability (NCI-H596; first compound 0.04 µM): 0.82 | relative viability (NCI-H596; first compound 0.1265 µM): 1.12 | relative viability (NCI-H596; first compound 0.4 µM): 0.869 | relative viability (NCI-H596; first compound 1.265 µM): 0.884 | relative viability (NCI-H647; first compound 0.04 µM): 1.1 | relative viability (NCI-H647; first compound 0.1265 µM): 1.13 | relative viability (NCI-H647; first compound 0.4 µM): 1.04 | relative viability (NCI-H647; first compound 1.265 µM): 0.713 | relative viability (NCI-H727; first compound 0.04 µM): 0.414 | relative viability (NCI-H727; first compound 0.1265 µM): 0.422 | relative viability (NCI-H727; first compound 0.4 µM): 0.476 | relative viability (NCI-H727; first compound 1.265 µM): 0.515 | relative viability (NCI-H838; first compound 0.04 µM): 1.15 | relative viability (NCI-H838; first compound 0.1265 µM): 1.27 | relative viability (NCI-H838; first compound 0.4 µM): 1.22 | relative viability (NCI-H838; first compound 1.265 µM): 1.07
